In PubChem BioAssay AID812 (SRMLSC, 2007) one finds EC50 data, which are given here for 65 molecules.

For the experiment, the system named is Saccharomyces cerevisiae lifespan extension, no nicotinamide. Kind of experiment: yeast lifespan extension without nicotinamide, confirmation, yeast lifespan extension project, S. cerevisiae (AID 812).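 Note: growth read as optical density after 42 hours of incubation at 30C.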

Activity calls are given as the source filed them. The rule behind the calls is not given here. A value given as a limit tells only on which side of the number the result lay.

The term EC50 denotes the concentration that produces a half-maximal response.

Consider `CCCCC(CC)Cn1c2nc3ccccc3nc2c2c(=N)oc(C)nc21` (stereo not given), for which the EC50 was > 40 µM (inactive).

As to `CN1C(=O)C(C(=O)Nc2ccccc2F)c2ccccc21` (stereo not given), the EC50 is > 40 µM (inactive).

In the case of `Cc1cccc(N2C(=O)/C(=C\c3ccc(OC(F)F)cc3)c3ccccc3C2=O)c1`, the EC50 is > 40 µM (inactive).

Take `O=c1c2c3c(sc2ncn1/N=C/c1ccc([N+](=O)[O-])o1)CCCC3`: the EC50 was > 40 µM (inactive).

Take `CC1CCCCC1NC(=O)/C(C#N)=C/c1ccccc1F` (stereo not given): the EC50 was > 40 µM (inactive).

With `Cc1cc(C)n2cc(CSc3nnc(N)s3)nc2n1`, the EC50 is > 40 µM (inactive).

On to `CCCCCCN1CC(C(=O)OCC)C(=O)C1=O` (stereo not given), for which the EC50 is > 40 µM (inactive).

Turning to `COn1c(SC2CCCCC2)nc2ccccc2c1=O`, the EC50 is > 40 µM (inactive).

On to `CCCCSc1[nH]c(=O)c(C(=O)OCC)cc1C#N`, for which the EC50 was > 40 µM (inactive).

With `CCCc1cc(=O)oc2cc(C)c(CN3CCCC3)c(O)c12`, the EC50 was > 40 µM (inactive).

Take `CCOC(=O)c1c(C)oc2c1c(C(c1cccnc1)N1CCOCC1)c(O)c1ccccc12` (stereo not given): the EC50 was > 40 µM (inactive).

Turning to `COc1ccc2c(=O)c3c(=O)n(Cc4ccco4)c(-c4ccco4)nc3oc2c1`, the EC50 was > 40 µM (inactive).

Consider `COc1c(Br)cc(Br)cc1/C=N/n1c(C)nnc1C`, for which the EC50 was > 40 µM (inactive).

`Nn1c(-c2ccccn2)nnc1-c1ccccn1`: the EC50 is > 40 µM (inactive).

For the molecule `NC(=S)N/N=C/c1coc2cc(Cl)ccc2c1=O`, the EC50 was > 40 µM (inactive).

As for `COc1cccc(/C=C2\C(=O)N(c3cccc(C)c3)C(=O)c3ccccc32)c1`, the EC50 is > 40 µM (inactive).

As to `CN(C)C1(c2nnnn2CCOC(=O)Nc2ccc(Cl)cc2)CCCCC1`, the EC50 was > 40 µM (inactive).

Turning to `CCNCCNC(=O)c1c(O)c2cccc3c2n(c1=O)CCC3`, the EC50 was > 40 µM (inactive).

With `Cc1cccc(OC(=O)n2c(=S)oc3cc(Cl)ccc32)c1`, the EC50 was > 40 µM (inactive).

On to `COC(=O)CSc1ncccc1-c1nc2ccccc2[nH]1`, for which the EC50 is > 40 µM (inactive).

As to `CCCCCOC(=O)CSc1nc2c(c(=O)[nH]c(=O)n2C)n1CCc1ccccc1`, the EC50 is > 40 µM (inactive).

Take `COc1ccc(-c2cc(C(F)(F)F)nc(S(C)(=O)=O)n2)cc1`: the EC50 was > 40 µM (inactive).

Consider `CC1CCCCN1C(=S)Nc1ccc2nc3n(c(=O)c2c1)CCCCC3` (stereo not given), for which the EC50 is > 40 µM (inactive).

As for `O=c1[nH]c2ccccc2nc1C(Cl)c1ccccc1` (stereo not given), the EC50 was > 40 µM (inactive).

Turning to `C/C(=N\NC(=O)c1cccnc1)c1c(O)cc(C)oc1=O`, the EC50 is > 40 µM (inactive).

Consider `CCCCSc1nc(O)c(C2OC(=O)c3c2ccc(OC)c3OC)c(=O)n1C` (stereo not given), for which the EC50 is > 40 µM (inactive).

As for `COCCn1c(SCC(=O)Nc2ccc(C)cc2)nc2c(oc3ccccc32)c1=O`, the EC50 is > 40 µM (inactive).

In the case of `COc1cccc(C2CC3C(=O)C=CC2N3Cc2ccccc2)c1` (stereo not given), the EC50 is > 40 µM (inactive).

Take `CC(C)c1nnc(NC(=O)c2c(O)c3cccc4c3n(c2=O)CCC4)s1`: the EC50 is > 40 µM (inactive).

For `CCCCN(CCCC)c1ccc(C(=O)c2ccccc2C(=O)O)c(O)c1`, the EC50 is > 40 µM (inactive).

Turning to `Cc1cc(NS(=O)(=O)c2ccc(CC(C)C)cc2)no1`, the EC50 is > 40 µM (inactive).

For the molecule `CCCNC(=O)CCC(NS(=O)(=O)c1ccc(C)cc1)C(=O)NCCC` (stereo not given), the EC50 is > 40 µM (inactive).

Consider `COc1ccc(C(=O)C(CN2CCOCC2)c2ccccc2)cc1F` (stereo not given), for which the EC50 is > 40 µM (inactive).

In the case of `CCOC(=O)c1ccc2c(c1)n(CCO)c(C)[n+]2CC`, the EC50 is > 40 µM (inactive).

As for `CCCCCn1c(=O)c(C(=O)NCc2ccccn2)c(O)c2ccccc21`, the EC50 is > 40 µM (inactive).

With `CCCCC(c1nnnn1CC1CCCO1)N1CCN(c2nc3ccccc3s2)CC1` (stereo not given), the EC50 is > 40 µM (inactive).

For `COc1ccc(C(=O)On2c(-c3ccc(Br)cc3)nc3ccccc3c2=O)cc1`, the EC50 was > 40 µM (inactive).

As to `Cn1c(SCC(=O)N2CCCc3ccccc32)nnc1-c1c[nH]c2ccccc12`, the EC50 was > 40 µM (inactive).

As for `CCOc1ccc2nc(NCCNC(=O)Nc3ccccc3)c(C#N)cc2c1`, the EC50 was > 40 µM (inactive).

On to `COc1ccc(-c2cc(C(F)(F)F)nc(S(C)(=O)=O)n2)cc1OC`, for which the EC50 is > 40 µM (inactive).

Consider `COCCCNC(CC(=O)Nc1ccc(OC)cc1OC)C(=O)O` (stereo not given), for which the EC50 is > 40 µM (inactive).

Take `Cc1ccc(N(C(=O)CS(=O)CC(=O)Nc2ccc(F)cc2)C(C(=O)NC2CCCCC2)c2ccco2)cc1` (stereo not given): the EC50 was > 40 µM (inactive).

As to `CN1C(=O)NC(c2ccc(O)cc2)C(C(=O)c2cccs2)C1(O)C(F)(F)F` (stereo not given), the EC50 is > 40 µM (inactive).

With `CC1CCc2cc(F)cc3c(O)c(C(=O)NCc4ccco4)c(=O)n1c23` (stereo not given), the EC50 is > 40 µM (inactive).

For the molecule `CS(=O)(=O)c1nc(-c2ccco2)cc(C(F)(F)F)n1`, the EC50 was > 40 µM (inactive).

Regarding `Cc1cc(C)n(-c2ccc(OCC(=O)O)nn2)n1`, the EC50 was > 40 µM (inactive).

Regarding `O=C(Cn1nc(Cl)nc1Cl)c1cc2ccccc2oc1=O`, the EC50 was > 40 µM (inactive).

Regarding `CCCCCSc1nc2c(c(=O)[nH]c(=O)n2C)n1C`, the EC50 is > 40 µM (inactive).

On to `CCCC(=O)Nc1ccccc1Sc1ncnc2scc(-c3ccccc3)c12`, for which the EC50 was > 40 µM (inactive).

As for `C=C(C)CN(CC)C(=O)COc1ccc(S(=O)(=O)Nc2ccc(OC)cc2)cc1`, the EC50 is > 40 µM (inactive).

Turning to `Cc1ccccc1OC(=O)n1c(=S)oc2cc(Cl)ccc21`, the EC50 was > 40 µM (inactive).

`Cc1cc(N=Cc2c(O)ccc3ccccc23)no1`: the EC50 was > 40 µM (inactive).

For `CCCn1c(C)cc(C(=O)COc2ncnc3sccc23)c1C`, the EC50 was > 40 µM (inactive).

For `COc1ccc(OC)c(C2C(C(C)=O)=C(O)C(=O)N2Cc2cccnc2)c1` (stereo not given), the EC50 was > 40 µM (inactive).

In the case of `CCOC(=O)C1C(=O)C(C(C)=O)C(=O)CC1CC(C)SCC` (stereo not given), the EC50 was > 40 µM (inactive).

On to `O=C1C=CCC(/C=C/c2ccccc2)O1` (stereo not given), for which the EC50 is > 40 µM (inactive).

Consider `CC(=C1C(=O)c2ccccc2C1=O)N1CCN(c2ccccn2)CC1`, for which the EC50 is > 40 µM (inactive).

On to `N#Cc1cc(C(=O)c2cc(F)ccc2O)cn(-c2nccs2)c1=O`, for which the EC50 is > 40 µM (inactive).

Take `C=CCN(CC=C)S(=O)(=O)c1ccc2nc(NC(=O)C(C)C)sc2c1`: the EC50 is > 40 µM (inactive).

For the molecule `CCOC(=O)Cc1csc(NC(=O)c2c(O)c3ccccc3n(CC(C)C)c2=O)n1`, the EC50 was > 40 µM (inactive).

As to `CCN(CCO)C(=O)C12CCC(C)(C(=O)C1)C2(C)C` (stereo not given), the EC50 was > 40 µM (inactive).

For `Cc1ccc(C(=O)c2no[n+]([O-])c2C(=O)c2ccc(C)cc2)cc1`, the EC50 was > 40 µM (inactive).

For `CCCCn1c(=O)c2c(O)cc(=O)oc2c2ccccc21`, the EC50 was > 40 µM (inactive).

For `COc1ccc(C2CC23N=C(c2ccccc2)OC3=O)cc1` (stereo not given), the EC50 was > 40 µM (inactive).

For `CC(C)n1c(=O)c2c(O)cc(=O)oc2c2ccccc21`, the EC50 is > 40 µM (inactive).
